Assay results from patent US11071729B2, “1′,3′-disubstituted-4-phenyl-3,4,5,6-tetrahydro-2H,1′H-[1,4′]bipyridinyl-2′-ones” (Janssen Pharmaceuticals, Inc., priority 2007, dated 2021).

Biological target: human mGluR2 receptor (Homo sapiens (Human), UniProt Q14416)
Assay: [35S]GTPγS binding assay (PAM assay)
Format: biochemical
Conditions: membranes from CHO cells transfected with human mGluR2; in presence of glutamate at EC25 concentration; averages of duplicate values of 11-concentration response curves
Procedure: The [^35S]GTPγS binding assay is a functional membrane-based assay used to study G-protein coupled receptor (GPCR) function whereby incorporation of a non-hydrolysable form of GTP, [^35S]GTPγS (guanosine 5′-triphosphate, labelled with […] ^35S), is measured. The G-protein […] subunit catalyzes the exchange of guanosine 5′-diphosphate (GDP) by guanosine triphosphate (GTP) and on activation of the GPCR by an agonist, [^35S]GTPγS, becomes incorporated and cannot be cleaved to continue the exchange cycle (Harper (1998) Current Protocols in Pharmacology 2.6.1-10, John Wiley & Sons, Inc.). […] Here we describe the use of the [^35S]GTPγS binding assay using membranes from cells transfected with the human mGluR2 receptor and adapted from Schaffhauser et al ((2003) Molecular Pharmacology 4:798-810) for the detection of the positive allosteric modulation (PAM) properties of the compounds of this invention.
CHO-cells were cultured to pre-confluence and stimulated with 5 mM butyrate for 24 hours, prior to washing in PBS, and then collected by scraping in homogenisation buffer (50 mM Tris-HCl buffer, pH 7.4, 4° C.). Cell lysates were homogenized briefly (15 s) using an ultra-turrax homogenizer. The homogenate was centrifuged at 23 500×g for 10 minutes and the supernatant discarded. The pellet was resuspended in 5 mM Tris-HCl, pH 7.4 and centrifuged again (30 000×g, 20 min, 4° C.). The final pellet was resuspended in 50 mM HEPES, pH 7.4 and stored at −80° C. in appropriate aliquots before use. Protein concentration was determined by the Bradford method (Bio-Rad, USA) with bovine serum albumin as standard.
Measurement of mGluR2 positive allosteric modulatory activity of test compounds in membranes containing human mGluR2 was performed using frozen membranes that were thawed and briefly homogenized prior to pre-incubation in 96-well microplates (15 μg/assay well, 30 minutes, 30° C.) in assay buffer (50 mM HEPES pH 7.4, 100 mM NaCl, 3 mM MgCl2, 50 μM GDP, 10 μg/ml saponin,) with increasing concentrations of positive allosteric modulator (from 0.3 nM to 50 μM) and either a minimal pre-determined concentration of glutamate (PAM assay), or no added glutamate. For the PAM assay, membranes were pre-incubated with glutamate at EC25 concentration, i.e. a concentration that gives 25% of the maximal response glutamate, and is in accordance to published data (Pin et al. (1999) Eur. J. Pharmacol. 375:277-294). After addition of [^35S]GTPγS (0.1 nM, f.c.) to achieve a total reaction volume of 200 μl, microplates were shaken briefly and further incubated to allow [^35S]GTPγS incorporation on activation (30 minutes, 30° C.). The reaction was stopped by rapid vacuum filtration over glass-fibre filter plates (Unifilter 96-well GF/B filter plates, Perkin-Elmer, Downers Grove, USA) microplate using a 96-well plate cell harvester (Filtermate, Perkin-Elmer, USA), and then by washing three times with 300 μl of ice-cold wash buffer (Na2PO4.2H2O 10 mM, NaH2PO4.H2O 10 mM, pH=7.4). Filters were then air-dried, and 40 μl of liquid scintillation cocktail (Microscint-O) was added to each well, and membrane-bound [^35S]GTPγS was measured in a 96-well scintillation plate reader (Top-Count, Perkin-Elmer, USA). Non-specific [^35S]GTPγS binding is determined in the presence of cold 10 μM GTP.

Chain of human mGluR2 receptor (Q14416 19-872): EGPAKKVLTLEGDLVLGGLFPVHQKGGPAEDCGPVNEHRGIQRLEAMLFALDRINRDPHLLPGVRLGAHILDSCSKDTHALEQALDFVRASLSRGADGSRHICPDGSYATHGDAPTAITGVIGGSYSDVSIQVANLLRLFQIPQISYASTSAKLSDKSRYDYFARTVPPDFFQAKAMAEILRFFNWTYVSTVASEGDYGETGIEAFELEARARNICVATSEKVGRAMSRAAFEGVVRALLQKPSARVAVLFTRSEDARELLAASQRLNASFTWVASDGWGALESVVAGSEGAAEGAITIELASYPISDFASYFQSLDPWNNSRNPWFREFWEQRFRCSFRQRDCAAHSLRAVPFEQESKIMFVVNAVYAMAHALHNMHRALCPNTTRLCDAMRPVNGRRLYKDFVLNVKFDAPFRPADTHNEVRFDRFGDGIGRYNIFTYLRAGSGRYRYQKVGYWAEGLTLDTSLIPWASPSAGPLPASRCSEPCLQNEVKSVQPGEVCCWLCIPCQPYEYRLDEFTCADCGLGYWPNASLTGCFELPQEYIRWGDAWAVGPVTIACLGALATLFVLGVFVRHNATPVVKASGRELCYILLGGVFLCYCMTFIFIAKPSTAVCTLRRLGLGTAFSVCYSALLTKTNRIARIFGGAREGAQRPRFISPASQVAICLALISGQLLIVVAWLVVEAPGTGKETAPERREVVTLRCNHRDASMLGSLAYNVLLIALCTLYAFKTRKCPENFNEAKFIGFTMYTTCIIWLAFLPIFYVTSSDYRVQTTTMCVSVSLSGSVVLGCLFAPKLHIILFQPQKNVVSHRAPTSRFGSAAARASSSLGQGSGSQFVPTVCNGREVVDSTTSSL

Row | Compound | GTPgS - hR2 PAM pEC50
1 | CCCCn1ccc(N2CCC(CO)(c3ccccc3)CC2)c(Cl)c1=O [Compound 22, 1′-Butyl-3′-chloro-4-hydroxymethyl-4-phenyl-3,4,5,6-tetrahydro-2H,1′H-[1,4′]bipyridinyl-2′-one] | 6.05
2 | O=c1c(Cl)c(N2CCC(OCCF)(c3ccccc3)CC2)ccn1CC1CC1 [Compound 20, 3′-Chloro-1′-cyclopropylmethyl-4-(2-fluoro-ethoxy)-4-phenyl-3,4,5,6-tetrahydro-2H,1′H-[1,4′]bipyridinyl-2′-one] | 6.91
3 | N#CC1(c2ccccc2)CCN(c2ccn(CC3CC3)c(=O)c2Cl)CC1 [Compound 6, 3′-Chloro-1′-cyclopropylmethyl-2′-oxo-4-phenyl-3,4,5,6,1′,2′-hexahydro-2H-[1,4′]bipyridinyl-4-carbonitrile] | 6.34
4 | O=c1c(Cl)c(N2CCC(c3cccc(C(F)(F)F)c3)CC2)ccn1CC1CC1 [Compound 16] | 7.12
5 | CCCCn1ccc(N2CCC(c3ccc(C(C)(C)O)cc3F)CC2)c(Cl)c1=O [Compound 29, 1′-Butyl-3′-chloro-4-[2-fluoro-4-(1-hydroxy-1-methyl-ethyl)-phenyl]-3,4,5,6-tetrahydro-2H,1′H-[1,4′]bipyridinyl-2′-one] | 6.88
6 | O=c1c(Cl)c(N2CCC(F)(c3ccccc3)CC2)ccn1CCC1CC1 [Compound 26] | 6.41
7 | O=c1c(Cl)c(N2CCC(c3ccccc3)CC2)ccn1CCC1CC1 [Compound 10] | 6.88
8 | CCCCCn1ccc(N2CCC(c3ccccc3)CC2)c(Cl)c1=O [Compound 11] | 7.11
9 | O=c1c(C(F)(F)F)c(N2CCC(c3ccccc3)CC2)ccn1CC1CC1 [Compound 4, 1′-Cyclopropylmethyl-4-phenyl-3′-trifluoromethyl-3,4,5,6-tetrahydro-2H,1′H-[1,4′]bipyridinyl-2′-one] | 6.45
10 | O=c1c(Cl)c(N2CCC(c3ccccc3)CC2)ccn1CC1CC1 [Compound 1, 3′-Chloro-1′-cyclopropylmethyl-4-phenyl-3,4,5,6-tetrahydro-2H,1′H-[1,4′]bipyridinyl-2′-one] | 6.53
11 | O=c1c(C2CC2)c(N2CCC(c3ccccc3)CC2)ccn1CC1CC1 [Compound 8, 3′-Cyclopropyl-1′-cyclopropylmethyl-4-phenyl-3,4,5,6-tetrahydro-2H,1′H-[1,4′]bipyridinyl-2′-one] | 6.04
12 | O=c1c(Cl)c(N2CCC(c3ccc(F)cc3F)CC2)ccn1CC1CC1 [Compound 14] | 6.92
13 | CC(C)Cn1ccc(N2CCC(c3ccccc3)CC2)c(Cl)c1=O [Compound 19] | 6.71
14 | CC(C)CCn1ccc(N2CCC(F)(c3ccccc3)CC2)c(Cl)c1=O [Compound 23] | 6.58
15 | CC(C)CCn1ccc(N2CCC(c3ccc(F)cc3F)CC2)c(Cl)c1=O [Compound 24] | 6.91
16 | O=c1c(Cl)c(N2CCC(c3ccccc3)CC2)ccn1Cc1ccc(OC(F)(F)F)cc1 [Compound 5, 3′-Chloro-4-phenyl-1′-(4-trifluoromethoxybenzyl)-3,4,5,6-tetrahydro-2H,1′H-[1,4′]bipyridinyl-2′-one] | 6.90
17 | O=c1c(Cl)c(N2CCC(c3ccc(N4CCOCC4)cc3)CC2)ccn1CC1CC1 [Compound 13] | 6.64
18 | O=c1c(Cl)c(N2CCC(F)(c3ccccc3)CC2)ccn1CC1CC1 [Compound 17] | 6.57
19 | O=c1c(Cl)c(N2CCC(c3ccccc3Cl)CC2)ccn1CC1CC1 [Compound 15] | 7.00
20 | CCCCn1ccc(N2CCC(c3ccc(F)cc3F)CC2)c(Cl)c1=O [Compound 25] | 6.83
21 | CCCCn1ccc(N2CCC(c3ccc(C(C)(C)O)cc3)CC2)c(Cl)c1=O [Compound 27] | 6.46
22 | CC(C)(O)c1ccc(C2CCN(c3ccn(CC4CC4)c(=O)c3Cl)CC2)cc1 [Compound 9, 3′-Chloro-1′-cyclopropylmethyl-4-[4-(1-hydroxy-1-methyl-ethyl)-phenyl]-3,4,5,6-tetrahydro-2H,1′H-[1,4′]bipyridinyl-2′-one] | 6.57
23 | O=c1c(Br)c(N2CCC(c3ccccc3)CC2)ccn1CC1CC1 [Compound 3, 3′-Bromo-1′-cyclopropylmethyl-4-phenyl-3,4,5,6-tetrahydro-2H,1′H-[1,4′]bipyridinyl-2′-one] | 6.88
24 | O=c1c(Cl)c(N2CCC(c3ccccc3F)CC2)ccn1CC1CC1 [Compound 12] | 7.03
25 | O=c1c(Cl)c(N2CCC(CF)(c3ccccc3)CC2)ccn1CC1CC1 [Compound 21, 3′-Chloro-1′-cyclopropylmethyl-4-fluoromethyl-4-phenyl-3,4,5,6-tetrahydro-2H,1′H-[1,4′]bipyridinyl-2′-one] | 6.25
26 | CC(C)CCn1ccc(N2CCC(c3ccccc3)CC2)c(Cl)c1=O [Compound 18] | 7.20
27 | CCCCn1ccc(N2CCC(c3ccccc3C(C)(C)O)CC2)c(Cl)c1=O [Compound 28, 1′-Butyl-3′-chloro-4-[2-(1-hydroxy-1-methyl-ethyl)-phenyl]-3,4,5,6-tetrahydro-2H,1′H-[1,4′]bipyridinyl-2′-one] | 7.06

Same assay, conditions: membranes from CHO cells transfected with human mGluR2; in presence of glutamate at EC25 concentration; averages of duplicate values of 11-concentration response curves; read-out: GTPgS - hR2 PAM pEC50 (converted)

Row | Compound | EC50 [nM]
28 | CCCCn1ccc(N2CCC(F)(c3ccccc3)CC2)c(Cl)c1=O [Compound 7] | 240
